According to patent publication US8802675B2, “Neuroprotective multifunctional compounds and pharmaceutical compositions comprising them” (priority 2009, dated 2014):

Columns and labels:
rat brain MAO-A = biological target: T1, rat brain MAO-A (Rattus norvegicus, UniProt P21396); assay: biochemical; details: for IC50: IC50 MAO-A, rat brain homogenate in vitro, mean SEM, n=3 in triplicates
T1 construct: from tissue; host or cells: rat brain homogenate
T1 sequence (P21396 1-526): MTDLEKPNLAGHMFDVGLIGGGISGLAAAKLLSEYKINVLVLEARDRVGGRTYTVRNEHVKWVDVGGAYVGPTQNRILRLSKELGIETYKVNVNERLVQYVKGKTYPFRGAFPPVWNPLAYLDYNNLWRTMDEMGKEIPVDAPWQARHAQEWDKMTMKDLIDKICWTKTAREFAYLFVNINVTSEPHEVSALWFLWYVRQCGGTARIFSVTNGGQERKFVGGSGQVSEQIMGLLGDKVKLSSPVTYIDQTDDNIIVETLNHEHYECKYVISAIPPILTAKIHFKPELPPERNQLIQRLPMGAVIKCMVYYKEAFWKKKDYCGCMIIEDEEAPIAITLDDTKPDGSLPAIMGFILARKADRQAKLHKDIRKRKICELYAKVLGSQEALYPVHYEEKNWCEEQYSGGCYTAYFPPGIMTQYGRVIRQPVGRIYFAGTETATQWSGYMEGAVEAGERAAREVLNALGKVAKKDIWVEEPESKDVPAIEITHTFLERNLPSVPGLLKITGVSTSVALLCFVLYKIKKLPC
Protocol: (§1) Rats were decapitated and the brains were quickly taken into a pre-weighted ice-cold sucrose buffer (10 mM Tris-HCl buffer, pH 7.4, containing 0.32 M sucrose), and their weights were measured. The brains were homogenized at 0-4° C. in 0.32 M sucrose (one part tissue to 20 parts sucrose) in a Teflon glass homogenizer. The resultant homogenates were used to determine MAO activity. Protein concentration was determined with Bradford reagent at 595 nm, using bovine serum albumin as a standard.
(§2) The activity of MAO-A and MAO-B were determined by the adapted method of Tipton & Youdim (Tipton et al. 1983). Briefly, the multifunctional compound tested was added to a suitable dilution of the enzyme preparation (70 μg MAO-B and 150 μg MAO-A) in 0.05 M phosphate buffer (pH 7.4). The mixture was incubated together with 0.05 μM 1-deprenyl, a specific inhibitor of MAO-B (for determination of MAO-A activity in the presence of the test compound) or 0.05 μM clorgyline a specific inhibitor of MAO-A (for determination of MAO-B activity). […] The reaction was stopped with 2M ice-cold citric acid, and the radioactive metabolites (5-hydroxytryptaldehyde and phenylacetaldehyde) were extracted by addition of 2 ml of ethylacetate/toluene (1:1 vol/vol). The radioactivity contained in the organic phase was determined by liquid-scintillation counting in cpm units.
(§3) MAO-A and MAO-B activities were determined in rat brain homogenate in vitro following incubation with varying concentrations of the test compounds.
(§4) The results are the mean SEM, n=3 in triplicates.

rat brain MAO-B = biological target: T2, rat brain MAO-B (Rattus norvegicus, UniProt P19643); assay: biochemical; details: for inhibition at 10 µM: read-out: percent inhibition MAO-B
T2 construct: from tissue; host or cells: rat brain homogenate
T2 sequence (P19643 1-520): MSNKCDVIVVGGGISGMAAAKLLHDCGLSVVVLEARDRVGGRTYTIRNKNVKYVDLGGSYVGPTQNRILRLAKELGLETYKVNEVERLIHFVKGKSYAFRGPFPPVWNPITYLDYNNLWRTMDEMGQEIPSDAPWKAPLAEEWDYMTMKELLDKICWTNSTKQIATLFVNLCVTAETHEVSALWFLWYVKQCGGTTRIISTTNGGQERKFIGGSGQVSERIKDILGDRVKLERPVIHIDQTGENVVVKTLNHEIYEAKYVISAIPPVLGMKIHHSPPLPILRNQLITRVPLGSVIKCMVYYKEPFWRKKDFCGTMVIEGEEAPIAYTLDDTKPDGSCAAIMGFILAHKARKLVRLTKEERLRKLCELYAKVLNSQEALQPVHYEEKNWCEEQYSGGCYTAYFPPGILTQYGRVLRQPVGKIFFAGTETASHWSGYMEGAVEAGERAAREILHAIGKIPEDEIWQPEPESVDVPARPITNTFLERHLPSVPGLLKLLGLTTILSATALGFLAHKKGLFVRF
Protocol: as §1, §2, §3, §4

[1] = biological target: T3, total cholinesterase (ChE) (Rattus norvegicus, UniProt P37136); assay: Total cholinesterase inhibition in rat brain homogenates (Ellman); type: biochemical
T3 sequence (P37136 32-614): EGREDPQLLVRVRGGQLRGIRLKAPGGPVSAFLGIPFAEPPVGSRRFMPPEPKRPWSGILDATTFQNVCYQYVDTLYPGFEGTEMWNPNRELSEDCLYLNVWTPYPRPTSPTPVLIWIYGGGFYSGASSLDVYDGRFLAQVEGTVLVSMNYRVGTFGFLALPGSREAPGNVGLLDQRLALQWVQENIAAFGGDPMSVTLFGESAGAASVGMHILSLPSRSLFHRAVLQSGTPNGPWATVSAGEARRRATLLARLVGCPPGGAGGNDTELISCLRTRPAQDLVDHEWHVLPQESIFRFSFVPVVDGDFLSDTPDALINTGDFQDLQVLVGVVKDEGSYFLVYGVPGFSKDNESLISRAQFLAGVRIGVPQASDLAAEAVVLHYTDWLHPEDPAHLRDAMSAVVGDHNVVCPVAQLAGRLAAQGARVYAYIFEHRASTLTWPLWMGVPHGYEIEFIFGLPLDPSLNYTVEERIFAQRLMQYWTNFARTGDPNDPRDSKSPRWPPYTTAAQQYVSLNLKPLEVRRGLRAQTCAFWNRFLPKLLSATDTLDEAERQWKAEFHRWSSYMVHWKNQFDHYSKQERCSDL
Protocol: Cholinesterase activity was determined in rat brain homogenate following incubation with varying concentrations of the multifunctional pro-chelators of the invention (also referred to herein as “carbamates”).
Ellman's colorimetric method was adapted for determination of total cholinesterase (ChE) and butyrylcholinesterase (BuChE) activities in rat brain homogenates. Brain tissue from adult Wistar rats was homogenized at 2% w/v (or 10% w/v, for BuChE) in 0.1 M sodium phosphate buffer, pH 7.4, with added NaCl 58.5 g/l and Triton X-100 0.05% v/v. Aliquots of homogenate (20 μl) were incubated with the test compounds for designed time intervals in phosphate buffer pH 7.4, before addition of 5,5′-dithiobis(2-nitrobenzoic) acid and either 1 mM acetylthiocholine iodide or 10 mM butyrylthiocholine iodide (Sigma, St. Louis, Mo.). The reaction was run at 37° C. in a final volume of […] in 96-well microplates and was followed at 412 nm for 5 min with a plate reader. In every experiment, cholinesterase-independent (nonspecific) substrate hydrolysis was determined by including one experimental group treated with tacrine 30 μM. Appropriate tissue and reagent blanks were also included. Reaction velocities were determined in three or four replicates per condition; these were averaged and expressed as percent activity relative to control (solvent), after subtracting the rate of nonspecific hydrolysis.
The results are the mean SEM, n=3 in triplicates. ND—not determined.

[2] = system: ChE from rat brain homogenates; assay: Time course of total ChE inhibition at 1 μM versus rivastigmine; type: biochemical; details: 1 μM, time course
Protocol: The new carbamates of the present invention are expected to act as rivastigmine and inhibit ChE activity. […] Enzyme activity was determined with Ellman's colorimetric method after addition of substrate, and the results are shown in FIGS. 8A-8B.

[3] = biological target: T4, rat brain cholinesterase (total ChE) (Rattus norvegicus, UniProt P37136); assay: Kinetics of irreversible cholinesterase inhibition (Kitz-Wilson); type: biochemical
T4 construct: rows headed: Ki (dissociation constant for EI); other: rat brain total ChE; mean of 3-4 experiments; k+2 (carbamylation rate constant); other: from ki; rate of carba
T4 sequence (P37136 32-614): T3 sequence (P37136 32-614)
Protocol: To determine kinetic constants of irreversible inhibition, cholinesterase from rat brain homogenates was incubated with the multifunctional compounds of the invention for designed time intervals in phosphate buffer pH 7.4.
The residual cholinesterase activity was immediately measured with the Ellman's colorimetric method after addition of 5,5′-dithiobis(2-nitrobenzoic) acid and 1 mM acetylthiocholine iodide. The inhibition kinetics were assessed according to Kitz-Wilson equation:
[formula] wherein: E represents the enzyme; I represents the intact carbamate (inhibitor); EI is the initial reversible enzyme complex; E* is the carbamylated enzyme; Ki represents the dissociation constant for EI; k+2 is the carbamylation rate constant and k+3 is the decarbamylation rate constant; kapp is the pseudo-first-order inhibition rate constant; ki, the second-order rate inhibition constant, is approximated by k+2/Ki. Under experimental condition [I]>>[E0].
According to equation (2), the logarithm of the ratio of the residual cholinesterase activity (E) and the initial cholinesterase activity (E0) is plotted against the time of incubation. The slopes of the lines representing kapp were determined by linear regression.
The slopes of the lines represent the pseudo-first-order inhibition rate constant (kapp) determined from linear regression analysis. […] The carbamylation rate constant (k+2) was obtained from the y-intercept, and the dissociation constant ([…] was obtained from the slope of the line multiplied by k+2 as described in Materials and Methods.
From these lines, the values of kapp were calculated based on Equation (2) of the Kitz-Wilson equations (see Material and Methods). […] The carbamylation rate constant k+2 is a measure of inactivation of ChE.

[4] = system: human SH-SY5Y neuroblastoma cells; assay: MTT cell viability assay in SH-SY5Y cells; type: cell-based; details: MTT after 48 h incubation
Protocol: Cell culture. Human neuroblastoma SH-SY5Y cells were obtained from American Type Culture Collection (Rockville, Md., USA). Cells were routinely cultured in MEM-Eagle/F-12(HAM) (1:1), containing 10% FCS and a mixture of 2% sodium bicarbonate, 1% penicillin/streptomycin/nystatin and 1% sodium pyruvate. Cell cultures were incubated at 37° C. in a humid 5% CO2-95% air environment.
Twenty-four hours after attachment of the SH-SY5Y cells, the medium was replaced with DMEM containing 0.1% BSA. The test compounds were added to the cells after 1 h of incubation. After 24 h incubation, the cells were subjected to MTT test as previously described (Gassen et al., 1998). The absorption was determined in a Perkin-Elmer Dual Wavelength Eliza-Reader at λ=570/650 nm after automatic subtraction of background readings. The results are expressed as percentage of the untreated control.
The effect of the iron chelators M30 and HLA20 versus that of the pro-chelators 13 and 23, on viability of human SH-SY5Y cells was tested. Human SH-SY5Y neuroblastoma cells were plated in 100-mm culture dishes and cultured in DMEM (4,500 mg/l glucose), containing 10% FCS (fetal calf serum, Bet Haemek, Israel), and 1% of a mixture of penicillin/streptomycin/nystatin. When cells reached the required confluence, they were detached and re-cultured in microtiter plates (96 wells) pre-coated with collagen ([…]), in DMEM with 10% of fetal calf serum (0.5×10^4 cells/well). Cell viability was tested by the 3-(4,5-dimethylthiazol-2-yl)-2,5-diphenyltetrazolium (MTT) assays after 48 h incubation.

[5] = Metal chelation assay (UV-vis spectra of metal complexes); type: physicochemical; details: ZnCl2, CuSO4, FeCl3 and FeSO4; 5% NH4Ac, pH=7
From the text: Metal chelation, particularly iron chelation, is an important precondition for the antioxidative-function of the multi-functional compounds of the invention, because it is the excessive iron stores and iron-mediated generation of free radicals in the brain that are thought to be associated with neurodegenerative diseases. The novel strategy, according to the present invention, for the treatment of neurodegenerative diseases such as Alzheimer's disease is the design of pro-chelators that inhibit AChE with a concomitant release of the active chelators. This novel strategy has advantages over the current chelator strategy since it is capable not only of minimizing the potential toxicity associated with strong chelators such as the 8-hydroxyquinoline derivatives disclosed in WO 2004/041151, which might interfere with healthy metal metabolism in the brain, but it also offers multiple activities against AChE, Aβ aggregation, oxidative stress, and metal (Fe, Cu, Zn) dyshomeostasis in the brain. Therefore, a metal chelation assay was used to confirm that the new multifunctional pro-chelators that comprise an N,N-dialkylcarbamoyl moiety [N(RR′)CO—] linked to the oxygen at position 8 of quinoline would have little to no affinity for metal ions in their pro-drug form. When these pro-chelators bind to cholinesterase or AChE in the brain, the N,N-dialkylcarbamoyl moiety is dissociated, thus unmasking a free hydroxyl group at said position 8 of quinoline, turning the pro-chelators into active chelators, which passivate excess cerebral metal ions and protect neuronal cells against reactive oxygen species (ROS).
A spectrophotometric method was used for measurement of metal complexes of the multifunctional pro-chelators of the invention with metal ions selected from Zn^2+, Cu^2+, Fe^3+ and Fe^2+, and compared to the respective metal complexes of some known iron chelators disclosed in WO 2004/041151.
Thus, the metal chelating function of compound 13 and compound 23 as compared to M30 and HLA20, respectively, was measured by dissolving 0.1 mM or 0.2 mM of the test compounds in 5% NH4Ac, pH=7, in the presence and absence of 0.1 mM or 0.2 mM of the metal salts […], CuSO4, FeCl3 and FeSO4, and measuring the UV-vis spectra (Hewlett-Packard 8450A diode array spectrophotometer) of the various metal complexes formed. The results for M30 and compound 13 are shown in FIGS. 1A and 1B, respectively.

Structure (SMILES)	IC50 (rat brain MAO-A) [µM]	inhibition at 10 µM (rat brain MAO-B) [%]	IC50 ([1]; rat brain homogenates, mean SEM, n=3 in triplicates) [µM]	ChE inhibition compared with rivastigmine and other carbamates [2]	potency in inhibiting ChE relative to rivastigmine ([3]; from ki)	kinact/KI ([3]; pH 7.4, read-out: ki (second-order rate inhibition constant, approximated by k+2/Ki)) [M⁻¹ s⁻¹]	inhibition at 50 µM ([1]; read-out: percent inhibition Total ChE) [%]	inhibitory effect on MAO-A (rat brain MAO-A; rat brain homogenate)	inhibitory effect on MAO-B (rat brain MAO-B; rat brain homogenate)	cell viability ([4]; 10 μM) [%]	cell viability ([4]; 25 μM) [%]	cell viability ([4]; 50 μM)	binding of metal ions (shift of absorbance peak) [5]
C#CCN(C)Cc1ccc(OC(=O)N(C)C)c2ncccc12 [Compound 2, 5-((methyl(propargyl)amino)methyl)quinolin-8-yl dimethylcarbamate]	< 0.1	67	0.52	more potent than	–	–	–	–	–	–	–	–	–
C#CCN(C)Cc1ccc(OC(=O)NCCCCCC)c2ncccc12 [Compound 4, 5-((methyl(propargyl)amino)methyl)quinolin-8-yl hexylcarbamate]	< 0.1	25	–	–	half potent	39	43	–	–	–	–	–	–
C#CCN1CCN(Cc2ccc(O)c3ncccc23)CC1 [HLA20, reference compound]	–	–	–	–	–	–	–	minor to none inhibitory effects	minor to none inhibitory effects	≤ 75	≤ 75	almost all the cells died	binds the respective metal ions
